Measured values as given in ChEMBL document CHEMBL1149937, “A new class of dinucleotide analogues. The synthesis of 3-O-thymidylyl(5-deoxy-5-selene-thymidylyl)-Se-phosphoroselenolate, its O-methyl ester and methanephosphonate derivatives” (Bioorg Med Chem Lett, 1994).

Assays:
Type in all cases: functional, cell-based
Conditions in all cases: Homo sapiens
ATH-8 cell line [1] = assay: Antiviral activity against HIV-1 using CD4+ ATH8 cells at a concentration of 5 uM; No detectable activity
ATH-8 cell line [2] = assay: Antiviral activity against HIV-1 using CD4+ ATH8 cells at a concentration of 25 uM; No detectable activity
ATH-8 cell line [3] = assay: Antiviral activity against HIV-1 using CD4+ ATH8 cells at a concentration of 25 uM; moderately toxic

**Q.** Which Activity (ATH-8 cell line [1]) does the source give for `COP(=O)(O[C@H]1C[C@H](n2cc(C)c(=O)[nH]c2=O)O[C@@H]1CO)[Se]C[C@H]1O[C@@H](n2cc(C)c(=O)[nH]c2=O)C[C@@H]1O` (some centres undefined) here?
**A.** The Activity was “No activity”.

**Q.** What about the Activity (ATH-8 cell line [2]) of the same compound?
**A.** Its Activity is “No activity”.

**Q.** With `Cc1cn([C@H]2C[C@H](OP(=O)(O)[Se]C[C@H]3O[C@@H](n4cc(C)c(=O)[nH]c4=O)C[C@@H]3O)[C@@H](CO)O2)c(=O)[nH]c1=O` as the compound, how does the Activity (ATH-8 cell line [1]) read?
**A.** The Activity was “No activity”.

**Q.** What about the Activity (ATH-8 cell line [3]) of the same compound?
**A.** Its Activity is “Toxic”.
